Results as given in PubChem BioAssay (NCI).
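GI50: concentration for 50% inhibition of growth. TGI: total growth inhibition.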

Tests used:
Test in all cases: NCI anticancer screen, dose series, 384-well format
MOLT-4 leukemia = tested on: MOLT-4 leukemia
NCI-H226 lung = tested on: NCI-H226 lung
NCI-H23 lung = tested on: NCI-H23 lung
NCI-H322M lung = tested on: NCI-H322M lung
NCI-H460 NSCLC = tested on: NCI-H460 NSCLC
NCI-H522 lung = tested on: NCI-H522 lung
NCI/ADR-RES ovarian = tested on: NCI/ADR-RES ovarian
OVCAR-3 ovarian = tested on: OVCAR-3 ovarian
OVCAR-4 ovarian = tested on: OVCAR-4 ovarian
OVCAR-8 ovarian = tested on: OVCAR-8 ovarian
PC-3 prostate = tested on: PC-3 prostate
RPMI-8226 leukemia = tested on: RPMI-8226 leukemia
RXF 393 renal = tested on: RXF 393 renal
SF-268 CNS = tested on: SF-268 CNS
SF-295 CNS = tested on: SF-295 CNS
SF-539 CNS = tested on: SF-539 CNS
SK-MEL-2 melanoma = tested on: SK-MEL-2 melanoma
SK-MEL-28 melanoma = tested on: SK-MEL-28 melanoma
SK-MEL-5 melanoma = tested on: SK-MEL-5 melanoma
SK-OV-3 ovarian = tested on: SK-OV-3 ovarian
SN12C renal = tested on: SN12C renal
SNB-19 CNS = tested on: SNB-19 CNS
SNB-75 CNS = tested on: SNB-75 CNS
SW-620 colon = tested on: SW-620 colon
TK-10 renal = tested on: TK-10 renal
U251 glioblastoma = tested on: U251 glioblastoma
UACC-257 melanoma = tested on: UACC-257 melanoma
UACC-62 melanoma = tested on: UACC-62 melanoma

CC1=CC(=O)C=CC1=Nc1ccc(N(C)C)cc1
TGI (MOLT-4 leukemia): 2.68 µM
GI50 (NCI-H226 lung): 8.38 µM
TGI (NCI-H226 lung): 20.6 µM
GI50 (NCI-H23 lung): 4.94 µM
TGI (NCI-H23 lung): 18 µM
GI50 (NCI-H322M lung): 17.6 µM
TGI (NCI-H322M lung): 31.5 µM
GI50 (NCI-H460 NSCLC): 16.4 µM
TGI (NCI-H460 NSCLC): 30.2 µM
GI50 (NCI-H522 lung): 2.21 µM
TGI (NCI-H522 lung): 10.4 µM
GI50 (NCI/ADR-RES ovarian): 6.51 µM
TGI (NCI/ADR-RES ovarian): 19.2 µM
GI50 (OVCAR-3 ovarian): 1.6 µM
TGI (OVCAR-3 ovarian): 3.06 µM
GI50 (OVCAR-4 ovarian): 2.58 µM
TGI (OVCAR-4 ovarian): 12.4 µM
GI50 (OVCAR-8 ovarian): 3.49 µM
TGI (OVCAR-8 ovarian): 9.79 µM
GI50 (PC-3 prostate): 3.22 µM
TGI (PC-3 prostate): 10.4 µM
GI50 (RPMI-8226 leukemia): 1.76 µM
TGI (RPMI-8226 leukemia): 3.19 µM
GI50 (RXF 393 renal): 4.87 µM
TGI (RXF 393 renal): 16.6 µM
GI50 (SF-268 CNS): 16.5 µM
TGI (SF-268 CNS): 30.1 µM
GI50 (SF-295 CNS): 15.3 µM
TGI (SF-295 CNS): 28.7 µM
GI50 (SF-539 CNS): 10.1 µM
TGI (SF-539 CNS): 21.7 µM
GI50 (SK-MEL-2 melanoma): 1.77 µM
TGI (SK-MEL-2 melanoma): 3.26 µM
GI50 (SK-MEL-28 melanoma): 15.6 µM
TGI (SK-MEL-28 melanoma): 29 µM
GI50 (SK-MEL-5 melanoma): 6.37 µM
TGI (SK-MEL-5 melanoma): 19.9 µM
GI50 (SK-OV-3 ovarian): 15.5 µM
TGI (SK-OV-3 ovarian): 29 µM
GI50 (SN12C renal): 11.6 µM
TGI (SN12C renal): 23.9 µM
GI50 (SNB-19 CNS): 15.3 µM
TGI (SNB-19 CNS): 28.7 µM
GI50 (SNB-75 CNS): 17.4 µM
TGI (SNB-75 CNS): 31.2 µM
GI50 (SW-620 colon): 13.4 µM
TGI (SW-620 colon): 26.4 µM
GI50 (TK-10 renal): 10.7 µM
TGI (TK-10 renal): 22.6 µM
GI50 (U251 glioblastoma): 10.4 µM
TGI (U251 glioblastoma): 22.2 µM
GI50 (UACC-257 melanoma): 6.22 µM
TGI (UACC-257 melanoma): 18.4 µM
GI50 (UACC-62 melanoma): 1.83 µM
TGI (UACC-62 melanoma): 3.92 µM
